Test results: patent publication US6492365B1, “Microsomal triglyceride transfer protein” (Bristol-Myers Squibb Company, priority 1992, dated 2002)
Structures can show the parent of a compound that is named as a salt.

Key:
[1] = system: TG secretion from HepG2 cells; assay: TG secretion from HepG2 cells (3H-glycerol labelling, extraction, TLC); assay type: cell-based; conditions: Homo sapiens, 1.25 μM-20 μM, 3H-glycerol labelling for two hours, read-out: IC50 for inhibition of TG secretion
Experimental: HepG2 cells were treated with Compound A at the indicated doses for […], the last two hours of which were in the presence of 5 μCi/mL 3H-glycerol. The concentration of radiolabelled triglycerides in the cell culture media was measured by quantitative extraction, followed by thin layer chromatography analysis and normalization to total cell protein. The data shown are expressed as a percentage of the control (DMSO only).
HepG2 cells were subcultured into 6-well dishes and allowed to come to confluency at least 24 hours before drug treatment. Prior to addition of the drug, culture media were removed, cells washed once with PBS, and 1 mL of fresh medium (RPMI 1640+10% FBS) was added quatitatively. […]
Total lipids were extracted from the media and analyzed as follows. […] Raw data was normalized to cell protein and expressed as percent of DMSO control.
HepG2 cells were treated with doses of compound A ranging from 1.25 μM-20 μM under conditions identical to those utilized for the apoB, apoAl and HSA secretion experiment. The intracellular pool of TG was radiolabelled for two hours with 3H-glycerol in the presence of vehicle or varying doses of compound A. The accumulation of radiolabelled TG in the medium was measured by quantitative extraction, followed by thin layer chromatography analysis and normalization to total cell protein. […]

[2] = system: HSA secretion from HepG2 cells; assay: HSA secretion from HepG2 cells (ELISA of culture media); assay type: cell-based, human; conditions: 16-hour incubation, up to the maximum dose of 20 μM
Experimental: HepG2 cells were treated with compound A at the indicated doses for 16 hours. The concentration in the cell culture media of apoB, apoAI and HSA after the incubation period was measured with the appropriate ELISA assay and normalized to total cell protein. The data shown are expressed as a percentage of the control (DMSO only).
The human hepatoblastoma cell line, HepG2, was obtained from the American Type Culture Collection (Rockville, Md.; ATCC accession no. 8065). Cultures were maintained at 37° C. in a 5% carbon dioxide atmosphere in T-75 culture flasks with 12 mL of RPMI 1640 medium containing 10% fetal bovine serum (all cell culture media and buffers were obtained from GIBCO Life Technologies, Gaithersburg, Md.). Cells were subcultured 1:4 once a week and fed fresh medium 3 times a week.
Experiments to measure the effects of compounds A and B on protein secretion were carried out in 48-well plates. HepG2 cells were subcultured 1:2 and allowed to come to confluency at least 24 hours before drug treatment. Before commencement of drug treatment, culture medium was removed, the cells washed once with PBS and 1 mL of fresh medium was added quantitatively. […] The cells were homogenized by trituration with a 1 mL micropipettor, and protein was measured using the Coomassie reagent (Pierce Chemical Co, Rockford, Ill.) as described by the manufacturer. […]

- IC50 [1]: ~2 µM
Compound: O=C1c2ccccc2CN1C1CCN(CCC(c2ccccc2)c2ccccc2)CC1 [compound A, 2-[1-(3,3-diphenylpropyl)-4-piperdinyl]-2,3-dihydro-3-oxo-1H-isoindole hydrochloride]
- secretion of HSA [2]: unaffected
